Results as given in patent publication US7169568B2, “Method for screening molecules that exert a neurotrophic effect through activation of neurotrophin receptors” (New York University, priority 2000, dated 2007).
Entries after “also recorded” stand apart in the source; their conditions may differ.

How the values were obtained:
Format in all cases: cell-based
TrkA receptors = experiment: TrkA receptor tyrosine phosphorylation in PC12 (615) cells (anti-pan-Trk immunoprecipitation, PY99 anti-phosphotyrosine immunoblot); details: PC12 (615) cells
Experimental: Stably transfected PC12 cells expressing high levels of TrkA (615) were treated with the indicated compounds for 2 hours. The cells were subsequently harvested in lysis buffer as described in the Materials and Methods of Example 1. Lysates were immunoprecipitated with anti-pan Trk rabbit antiserum. Immunocomplexes were analyzed by immunoblotting with anti-phosphotyrosine antibody (PY99).
In FIG. 2A, different concentrations of adenosine were administered to PC12615 cells for 2 hours or NGF (1 ng/ ml) for 10 min. Cells were also treated with CGS21680 at the indicated dose for 2 hours. In FIG. 2B, PC12 cells (615) were treated with adenosine (10 μM) for various times or with 5 ng/ml NGF for 10 min. Phosphorylated TrkA receptors were detected by immunoblot analysis using PY99 anti-phosphotyrosine antibodies. The amount of Trk receptors in each condition was verified by immunoblotting.
In FIG. 3A, PC12 cells (615) were treated with the A2A agonist CGS 21680 (10 nM) and an A1 agonist CPA (10 nM) for 2 hr. ZM 241385 (10 nM), an A2A antagonist, was incubated with the cells for 15 min prior to treatment with adenosine (10 μM) for 2 hours. In FIG. 3B, PC12 cells (615) were incubated with the indicated concentrations of PP1, a Src family kinase inhibitor (Hanke et al, 1996), for 30 min, and then treated with adenosine (10 μM) for 2 hours. Activation of TrkA was assessed by immunoprecipitation and immunoblot analysis using PY99 anti-phosphotyrosine antibody.
In FIG. 7A, different concentrations of PACAP27 were administered to PC12 (615) cells for 2 hours or NGF (5 ng/ml) for 10 min. […] Phosphorylated TrkA receptors were detected by immunoblot analysis using PY99 anti-phosphotyrosine antibodies. The level of Trk receptors for each condition was verified by immunoblotting with anti-Trk antibodies.
(§1) Immunoprotection and Immunoblotting. PC12 cells or PC12-615 cells (Hempstead et al, 1992), were maintained in Dulbecco's Modified Eagle's Medium (DMEM) containing 10% fetal bovine serum (FBS) supplemented with 100 units/ml penicillin, 100 μg/ml streptomycin, and 2 mM glutamine plus 200 μg/ml G418. Cells were placed in low serum medium (1% FBS, 0.5% horse serum) overnight prior to experiments. Cell lysates from PC12, 615 cells, or hippocampal cells were incubated in lysis buffer (1% NP40) for 4 hours to overnight at 4° C. with anti-pan-Trk polyclonal antibody, followed by incubation with protein A-Sepharose beads. Equivalent amounts of protein were analyzed for each condition. The beads' were washed five times with lysis buffer and the immune complexes were boiled in SDS-sample buffer and loaded on sodium dodecyl sulfate-polyacrylamide electrophoresis (SDS-PAGE) gels for immunoblot analysis. The immunoreactive protein bands were detected by ECL reagents based upon enhanced chemiluminescence procedure (Amersham Pharmacia).
Immunoprecipitated and Immunoblotting. PC12 (615) cells were maintained in DMEM containing 10% FBS supplemented with 100 units/ml penicillin, 100 μg/ml streptomycin, and 2 mM glutamine plus 200 μg/ml G418. Cells were placed in serum free medium overnight before experiments. Cell lysates from PC12(615) cells, or basal forebrain cells were incubated in lysis buffer (1% Nonidet P-40) for 4 hrs to overnight at 4° C. with anti-pan-Trk polyclonal antibody followed by incubation with protein A-Sepharose beads. Equivalent amounts of protein were analyzed for each condition.

[1] = system: NGF-differentiated PC12 cells; experiment: Cell death assay (LDH release), NGF-differentiated PC12 cells after NGF and serum withdrawal; details: one-time treatment, 48 hours in the absence of NGF, LDH release
Experimental: FIGS. 6A and 6B show graphs on the trophic effects of adenosine in PC12 and hippocampal cells deprived of neurotrophins. In FIG. 6A, NGF-differentiated PC12 cells were prepared and then NGF and serum were withdrawn for 48 hours as described in the Materials and Methods section of Example 1. Upon NGF withdrawal, various concentrations of CGS 21680 (CGS) were added to the media. CON =No Addition. […] In FIG. 6B, hippocampal neurons were prepared and B27 was withdrawn for 48 hrs as described in the Materials and Methods section of Example 1. Upon B27 withdrawal, various concentrations of CGS 21680 (CGS) were added to the media. […] All LDH levels were quantitated and % cell death calculated as described in the Materials and Methods section of Example 1. All bars depict mean+SEM from three independent experiments.
Cell Death Assay. PC12 cells were differentiated in Dulbecco's modified Eagle's medium (DMEM), supplemented with 0.33% fetal bovine serum, 0.67% heat-inactivated horse serum, 2 mM L-glutamine and NGF (50 ng/ml) for 7 days. Serum and NGF were then removed, and adenosine agonists or growth factors added to the media. After 48 hrs, cell death was quantified by measuring lactate dehydrogenase (LDH) released from injured cells into the media using the Cytox 96 Cytotoxicity Assay Kit (Promega, Madison, Wis.). LDH values were normalized by subtracting the LDH released by cells maintained in NGF (50 ng/ml) and scaling to a full kill (=100%) reference induced by 5 min treatment with 1% Triton, an exposure that consistently killed all PC12 cells.

MAP kinase = MAP kinase activation in PC12 cells (anti-phospho MAP kinase immunoblot); details: PC12 cells, adenosine 10 μM, within 10 minutes
Experimental: as §1, with “PC12 cells (615) were treated with adenosine (10 μM) for various times in the presence or absence of […] (100 nM) or LY294002 (10 μM). The cells were subsequently harvested in lysis buffer; lysates and immunoprecipitated samples were subsequently immunoblotted with anti-phospho MAP kinase, anti-phospho Akt, and anti-phosphotyrosine. Reprobing with anti-MAP kinase and anti-pan-Trk antibodies was carried out to ensure equal protein loading. Immunoprotection” for “Immunoprotection”, “The beads' were washed five times with lysis buffer and the immune complexes were boiled in SDS-sample buffer and loaded on sodium dodecyl sulfate-polyacrylamide electrophoresis (SDS-PAGE) gels for immunoblot analysis.” left out

Question: For `CCNC(=O)[C@H]1O[C@@H](n2cnc3c(N)nc(NCCc4ccc(CCC(=O)O)cc4)nc32)[C@H](O)[C@@H]1O` [CGS 21680, 2-[(4-(2-carboxyethyl)phenylethyl)]aminoadenosine-5′-N-ethylcarboxamide], which “Activation of TrkA receptor activity” value (TrkA receptors; 1 nM, 2 hours) is on record?
Answer: Its value is “verified”.

Question: And the Cells rescued [1]?
Answer: Its Cells rescued is roughly 50%.

Question: Which “Concentration range of the effect upon TrkA receptor activity” value (TrkA receptors; 2 hours) does the source give for `Nc1ncnc2c1ncn2[C@@H]1O[C@H](CO)[C@@H](O)[C@H]1O` [adenosine] here?
Answer: Its value is “low nanomolar range; also recorded: low concentration range”.

Question: What about the “Time required for increase in TrkA activation” value (TrkA receptors; adenosine 10 μM) of the same compound?
Answer: The value was “at least 90 minutes”.

Question: What about the “Activation of TrkA receptors (tyrosine phosphorylation)” value (TrkA receptors; ligand for 2 hours, adenosine 10 μM) of the same compound?
Answer: The value was “Activated TrkA receptors were observed”.

Question: And the “Phosphorylated MAP kinase” value (MAP kinase)?
Answer: The value was “marked increased in phosphorylated MAP kinase”.
